In patent publication US6133313A, “Insecticidal avocadofurans and triolein” (The Regents of the University of California, priority 1998, dated 2000):

Columns and labels:
Type in all cases: in vivo, Spodoptera exigua
S. exigua larvae = test: growth inhibition and mortality of synthetic avocadofurans and triolein in diet bioassay; design: key to GI (growth index): growth index calculated per J. Chem. Ecol. 19:1109 (1993), imax = 3; conditions: for 7-d Instar / 7-d Larval Weight: mean ± SE
Experimental: S. exigua larvae were used in all experiments. Larvae were reared on artificial diet modified from U.S.D.A. Agric. Res. Serv., Prod. Res. Rep., 1208:1 (1969), and maintained at 28+2° C., 14:10; light:dark (L:D) photoperiod.
The colony was collected from Orange Co., Calif. and had new genetic material added within 12 months prior to the study. The age of the cohorts tested was standardized by using neonates within 12 hours of eclosion. All bioassays were maintained at 28+2° C. 75% relative humidity (RH), and at 14:10 (L:D) photoperiod with fluorescent lighting.
The insecticidal activity of the fractions was tested with artificial diet bioassays. Treated diets were prepared by transferring 750 μl of acetone solutions of each fraction (equivalent to 300 mg crude idioblast cell oil) into 50-ml polypropylene centrifuge tubes (Fisher, Pittsburgh Pa.), evaporating the acetone, adding 2 ml of 0.1% Tween-80 solution (Fisher), homogenizing with an ultrasonic homogenizer (Co le-Parmer, Chicago Ill.), and adding prepared diet to produce a final weight of 15 g containing the equivalent of 2% idioblast oil. The mixture was vortexed for 3 mm.
Control diet was prepared by mixing 2 ml of Tween solution and 13 g of artificial diet to produce a final weight of 15 g. Control and treated diets were poured into 24-well (15.9 mm diameter and 15.9 mm depth) bioassay trays (C-D International Inc., Pitman N.J.). One neonate was added per well, and trays were placed in an incubator under the previously described conditions. Twenty-four neonates were tested for each fraction and control. Mortality and larval weights were recorded after 7 days.
The effect of the synthetically produced avocado furan compounds (>95% purity) and commercially available triolein (Sigma, St. Louis, Mo.) were tested on larval growth and mortality of S exigua. Treated and control diet were prepared as previously described.
Six different compound concentrations, chosen on the basis of studies with the oil fractions, were evaluated for both 2-(pentadecyl)furan and 2-(heptadecyl)furan: 0 (control), 600, 750, 900, 1050, and 1200 μg/g. Also, six concentrations of triolein (subfraction 1-1-12) were tested: 0 (control), 7000, 8000, 9000, 10000, and 11000 μg/g.
Twenty-four neonates were used per treatment. Bioassays were conducted as described in Example 4, and replicated 4 times for each concentration (i.e., a total of 96 larvae were tested for each concentration). Larval weight, instar, and mortality were recorded after 7 days […].
(§1) EC (effective concentration) values were calculated by subtracting the mean larval weight for each treatment from the mean weight of the controls, and dividing by the mean weight of the controls. LC (lethal concentration) values were obtained using probit analysis as described in Probit Analysis (1971) Cambridge University Press, Cambridge, UK. GI (growth index) and RGI (relative growth index) values were calculated as described in J. Chem. Ecol., 19:1109 (1993), but using an imax of 3 (the stage attained by most control larvae after 7 d). Statistical comparisons were conducted using SuperAnova Abacus Concept Inc., Berkeley, Calif. (1989).

S. exigua = test: synergistic/joint toxicity of avocadofuran and triolein combinations
Description: The treatments were as follows: Control, 2-(pentadecyl)furan, 2-(heptadecyl)furan, triolein, individually, and 2-(pentadecyl)furan combined with 2-(heptadecyl)furan and triolein, 2-(pentadecyl)furan combined with triolein, and 2-(heptadecyl)furan combined with triolein. Because the combined LC25 s for both avocadofurans exceed their LC50 values, a concentration for each was adjusted so that when added it would approximate the value of the avocadofurans LC50 (see Table 2). These concentrations were used whenever both avocadofurans were combined in the same treatment. Treatments were replicated four times, with 15 larvae per replicate to a total of 60 larvae/treatment.
Joint effects were determined by testing all combinations of LC25 s (estimated from probit lines shown in Table 1) of the three compounds for toxicity to S. exigua. The treatments were: control, 2-(pentadecyl)furan, 2-(heptadecyl)furan, triolein, 2-(pentadecyl)furan+triolein, 2-(heptadecyl)furan+triolein, and 2-(pentadecyl)furan+2-(heptadecyl)furan+triolein. Because the combined LC25 s for both avocadofurans exceeded their LC50 values (due to a steep slope of their LC lines), a concentration for each was used so that when added together it would approximate the value of the avocadofurans LC50 (Table 1). These concentrations were used whenever both avocadofurans were combined in the same treatment.
Treatments were replicated four times, with 15 larvae per replicate (total of 60 larvae/treatment). Dietary treatment preparations and bioassay procedures were conducted as described in Example 4. For each diet treatment, 9-d larval instar and weight, pupal weights, times to pupation, and larval mortality were recorded.

neonate S. exigua = test: individual toxicity of avocadofurans and triolein in artificial diet
Experimental: In this study, individual activity of avocadofurans was investigated quantitatively. For this purpose, eight concentrations of the avocadofurans (1) and (4) and triolein (8) were tested. Results are seen in FIG. 6.
Following pilot studies, eight concentrations of each were tested: 0, 0.5, 1, 1.5, 2, 2.5, 3, and 3.5 μmoles g^~1 diet. Also, five concentrations of triolein were tested: 0; 1,000; 2,000; 3,000; and 4,000 μg g^~1 diet. Because triolein was not compared to a structurally similar compound, a more standard dietary formulation of μg g-^1 was used rather than ^~ moles g^-1 in all triolein-treated bioassays.
Treated and control diet were prepared as described above. For each concentration the compounds were dissolved in 10 ml of Tween solution and mixed using an ultrasonic homogenizer. Untreated diet was added to make a total of 100 g and then vortexed for 3 mm. Control diet was prepared by mixing 10 ml of the Tween solution with 90 g of artificial diet to produce a final weight of 100 g. Control and treated diets were poured into 30 ml plastic cups. One neonate was placed in each cup and cups were held in an incubator. Fifteen larvae were tested at each concentration, and assays were replicated 4 times (total of 60 larvae/treatment). For each diet treatment, 9-d larval instar and weight, pupal weights, times to pupation, and larval mortality were recorded.
as §1

**Q.** What does the source list for `CCCCCCCCCCCCCCCCCc1ccco1` [2-(heptadecyl)furan (4), 2-(heptadecyl)furan]?
**A.** GI (growth index) (S. exigua larvae; 600 μg/g): 0.73; percent reduction in larval weight vs control (S. exigua larvae; 600 μg/g): 79.46%; 7-d Instar (S. exigua larvae; 600 μg/g): 2.25 ± 0.06; 7-d Larval Weight (S. exigua larvae; 600 μg/g): 6.44 ± 0.44 mg; GI (growth index) (S. exigua larvae; 750 μg/g): 0.62; percent reduction in larval weight vs control (S. exigua larvae; 750 μg/g): 87.14%; 7-d Instar (S. exigua larvae; 750 μg/g): 1.95 ± 0.06; 7-d Larval Weight (S. exigua larvae; 750 μg/g): 4.03 ± 0.44 mg; GI (growth index) (S. exigua larvae; 900 μg/g): 0.56; percent reduction in larval weight vs control (S. exigua larvae; 900 μg/g): 89.84%; 7-d Instar (S. exigua larvae; 900 μg/g): 1.87 ± 0.06; 7-d Larval Weight (S. exigua larvae; 900 μg/g): 3.19 ± 0.30 mg; GI (growth index) (S. exigua larvae; 1050 μg/g): 0.46; percent reduction in larval weight vs control (S. exigua larvae; 1050 μg/g): 93.55%; 7-d Instar (S. exigua larvae; 1050 μg/g): 1.65 ± 0.07; 7-d Larval Weight (S. exigua larvae; 1050 μg/g): 2.02 ± 0.16 mg; GI (growth index) (S. exigua larvae; 1200 μg/g): 0.23; percent reduction in larval weight vs control (S. exigua larvae; 1200 μg/g): 95.93%; 7-d Instar (S. exigua larvae; 1200 μg/g): 1.43 ± 0.08; 7-d Larval Weight (S. exigua larvae; 1200 μg/g): 1.28 ± 0.16 mg; mortality (S. exigua larvae; 600 to 900 μg/g): < 15%; reduction of larval development and growth (S. exigua larvae; 600 to 900 μg/g): > 75%; mortality at 600 µg/g (S. exigua larvae; Spodoptera exigua, feed or water, 168 h, 600 μg/g, 7 d): 2.08%; mortality at 750 µg/g (S. exigua larvae; Spodoptera exigua, feed or water, 168 h, 750 μg/g, 7 d): 4.2%; mortality at 900 µg/g (S. exigua larvae; Spodoptera exigua, feed or water, 168 h, 900 μg/g, 7 d): 10.4%; mortality at 1050 µg/g (S. exigua larvae; Spodoptera exigua, feed or water, 168 h, 1050 μg/g, 7 d): 16.7%; mortality at 1200 µg/g (S. exigua larvae; Spodoptera exigua, feed or water, 168 h, 1200 μg/g, 7 d): 54.2%; LC50 (95% FL) (S. exigua larvae; in diet): 1206 µg/g; comparative toxicity and growth inhibition (S. exigua larvae; in words): more toxic and growth inhibitory to S. exigua than either of the unsaturated compounds (2) and (6); inhibition of larval growth (S. exigua larvae; in words): significantly inhibited larval growth; Relative Growth Index (RGI) vs log concentration regression (FIG. 4) (S. exigua larvae; log (μg/g)): y=4.82-1.47*log(x), r^2 =0.89; Mortality (%) using LC25 (S. exigua; in vivo): 23.3%; Survival to pupation (S. exigua; in vivo): 76.6%; Weight, 9-d larvae (S. exigua; mean ± spread): 54.2 ± 5.9 mg; Weight, Pupae (S. exigua; mean ± spread): 112.8 ± 2.6 mg; Developmental times (S. exigua; neonate-pupa, in d (unit assumed)): 18.0; LC25 (95% FL) (neonate S. exigua; avocadofurans, larval stage): 1.02(0.70-1.29) μmoles g^-1 of diet; effect on pupal weight (FIG. 7) (neonate S. exigua; in words): significantly reduced; larval developmental time from neonate to pupa (FIG. 8) (neonate S. exigua; in words): significantly prolonged; Relative Growth Index (RGI) (FIG. 10) (neonate S. exigua; in words, increasing concentrations): decreased with increasing concentrations; LC50 (neonate S. exigua; larval stage): 2.1 μmoles g^-1 diet; concentration significantly reducing pupal weight (FIG. 7A) (neonate S. exigua; lowest concentration vs controls): ≥ 3 µmol/g
